# Results published in patent US5298652A, “N-substituted glycines, inhibitors of phospholipase A2” (Hoffmann-La Roche Inc., priority 1992, dated 1994).
# Legend:
# [1] = tested on: carrageenan-induced paw edema; experiment: Rat carrageenan paw edema; assay type: in vivo, Lewis rats; conditions: for % Inhib of Carrageenan Paw Edema 2 hr 30 mg/kg ip: 1 hr prior to carrageenan
# Experimental: Rat Carrageenan Paw Edema
# Representative compounds of the invention were tested in rat carrageenan-induced paw edema to determine their ability to inhibit this acute inflammatory response. Test compounds were administered intraperitoneally or orally to groups of seven Lewis rats (~200 gm) 1 hr prior to carrageenan administration. The test compounds were dissolved in dimethyl sulfoxide for intraperitoneal administration and dissolved or suspended in Labrafil […] for oral administration. At 0 hour, 0.1 mL of 1% carrageenan dissolved in pyrogen free […] was injected subplanetary into the right hind paw to elicit the inflammatory response. The volume (in mL) of the right hind paw was measured by immersion of the paw to the level of the lateral malleolus in an aqueous plethysmometer immediately prior to the injection of carrageenan and then at 1, 2 and 4 hr after carrageenan injection. The paw edema was calculated by subtracting the zero time reading from the readings taken after injection. The percent change of the edema volume from the vehicle treated control was calculated to determine the activity of the test compound. Statistical analysis of the mean paw edema values of the control versus the treated groups was performed using Student's t-test.
# [2] = molecular target: T1, HSF-PLA2 (extracellular PLA2 obtained from human synovial fluid) (Homo sapiens, UniProt P14555); experiment: Assay for inhibition of HSF-PLA2 in vitro; assay type: biochemical; conditions: read-out: % Inhib of HSF-PLA2; for inhibition at 5 µM: 5 μM test compound; for inhibition at 10 µM: 10 μM test compound
# T1 construct: extracellular enzyme obtained from human synovial fluid; from tissue; host or cells: human synovial fluid (pooled)
# T1 sequence (P14555 21-144): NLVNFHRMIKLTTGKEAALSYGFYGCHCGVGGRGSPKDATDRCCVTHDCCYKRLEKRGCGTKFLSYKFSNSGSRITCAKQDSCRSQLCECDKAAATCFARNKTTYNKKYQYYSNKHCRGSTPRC
# Experimental: Assay for Inhibition of HSF-PLA2 In Vitro
# The PLA2 used in this test is the extracellular enzyme obtained from human synovial fluid (HSF-PLA2).
# The assay for HSF-PLA2 activity was a modification of the described method [Franson R., Dobrow R., Weiss, J., Elsbach P., and Weglick W. B., J. Lipid Res., 19, 18-23 (1978)] which was conducted using [1-^14 C]-oleate-labelled E. coli substrate in excess at a final concentration of 20,000 dpm/ml. This was equivalent to 18.2 mM of cell membrane phospholipid phosphorus and 2×10^9 autoclaved E. coli/ml. The optimal conditions which were developed for the assay of HSF-PLA2 inhibitors are summarized as follows. A total volume of 0.5 ml of reaction mixture typically had the following final composition: substrate (20,000 dpm/ml); enzyme (0.1% HSF, v/v); 2 mM CaCl2; 150 mM Na^+; 50 mM sodium HEPES buffer, pH 7.3; and 1% dimethyl sulfoxide (DMSO, used to solubilize test inhibitors) in the presence or absence of inhibitor. The reaction was initiated by the addition of HSF-PLA2 and duplicate samples of the mixture were incubated in 13×100 mm glass tubes with shaking for 30 minutes at 37° C. The reaction was terminated by the addition of 2.5 ml of chloroform-methanol (1 to 1.5, v/v). The extraction of lipids from the stopped reaction mixture was conducted by the further additions of 0.5 ml of chloroform and 1 ml of water with mixing. After centrifuging, the lower chloroform phase was transferred to smaller glass tubes and the solvent was evaporated to dryness with a nitrogen stream. The extracted lipid residue was redissolved in […] of a solution containing carrier oleic acid (0.2 mg/ml) in chloroform-methanol [9 to 1, v/v]). The whole lipid extract was applied to a preactivated (30 minutes at 110° C.) silica gel-impregnated glass fiber thin layer chromatography sheet (ITLC type SG sheet from Gelman Sciences Inc., Ann Arbor, Mich.) using hexane-acetic acid (100 to 1, v/v) as the developing solvent. This TLC system rapidly (6 minutes) resolved the enzymatically released product, ^14 C-oleic acid, from the unreacted ^14 C-phospholipid substrate. The unsaturated lipids were located on the chromatogram by a brief exposure to iodine vapor. The oleic acid zone (Rf value 0.95) and phospholipid zone (origin) were cut out, chopped into small pieces, shaken with 2 ml of ethanol-water (80 to 20, v/v) and 15 ml of Aquasol and counted for radio-activity. A control incubation of substrate in the absence of HSF-PLA2 was performed in each experiment. The PLA2 activity of the human synovial fluid was corrected for this small control value. […] The specific activity of PLA2 in the pooled human synovial fluid under the optimal assay conditions was 49.2 nmoles [1-^14 C]-oleic aid released hour^-1 mg^-1. The IC50 (μM concentration of test compound that produces 50% inhibition of PLA2 activity) was determined for each test compound.
# [3] = tested on: croton oil-induced mouse ear edema; experiment: Croton oil mouse ear edema test; assay type: in vivo, male CD-1 mice; conditions: 1 mg topical, coapplied with croton oil; ear punch weight at 6 hours
# Experimental: Croton Oil Mouse Ear Edema Test
# The croton oil-induced mouse ear edema test, a model of irritant-induced contact dermatitis, has been used for evaluation of the PLA2 inhibitors by the topical route of administration. This test was carried out as described in the following references: […]
# Twenty five μl of a 1% croton oil solution [dissolved in a mixture of pyridine/water/diethyl ether at a ratio of 5/20/75 (croton oil vehicle)] are applied to the outer side of the right ear of 3-4 week old male CD-1 mice (8 animals per group). The test compounds are dissolved directly in the 1% croton oil solution at various concentrations and coapplied. Control animals receive 25 μl of croton oil vehicle on the right ear. Biopsy punches are removed at 6 hours from the right ear of the animals using a 6 mm skin trephine (Roboz, Washington, D.C.) and the wet weight of the ear punches is determined. The weight of the biopsy punches is a measure of ear inflammation, primarily edema. The data are expressed as percent inhibition relative to control groups.
# Statistical analysis of the mean edema values of the control versus the treated groups is performed using Student's t-test. The significance of changes from mean value for vehicle-treated animals is as follows (*p<0.05, **p<0.01, ***p<0.005, ns/not significant).
# [4] = tested on: adjuvant arthritis induced by Freunds complete adjuvant; conditions: dose 30 mg/kp ip
# Experimental: Representative compounds of the invention were tested in the standard adjuvant arthritis model in rats, induced by Freunds complete adjuvant, as described by C.
# [5] = tested on: TPA-induced mouse ear edema; experiment: TPA induced mouse ear edema test; assay type: in vivo, male CD-1 mice; conditions: for % Inhib of TPA Mouse Ear Edema (1 mg) / % Inhib of Myeloperoxidase Mouse Ear Edema (1 mg): 1 mg topical
# Experimental: TPA Induced Mouse Ear Edema Test
# The TPA-induced mouse ear edema test, a model of irritant-induced contact dermatitis is described in the following reference: J. M. Young, B. M. Wagner and D. A. Spires, J. Invest. Dermatology 80, 48-52 (1983).
# For this test, 10 μl of 12-O-tetradecanoylphorbol-13-acetate (TPA), dissolved in a vehicle of pyridine: water: diethylether (20:5:75), was applied to the outside of the right ear of 3-4 week old male CD-1 mice (8 animals per group). The test compounds were dissolved in the same vehicle and 10 μl was applied to the inside of the same ear 30 minutes prior to the application of TPA. Ear punches (6 mm) were removed at 6 hours after TPA application, weighed and assayed for myeloperoxidase (MPO) activity as described in the following reference: P. P. Bradley, D. A. Priebat, R. D. Christensen and G. Rothstein, J. Invest. Dermatology 78, 206-209 (1982). The wet weight of the ear biopsy punches is a measure of the ear edema and the level of MPO activity in the ear punches is an indicator of neutrophil infiltration. The data are expressed as percent inhibition in drug-treatedanimals relative to the control group. Table II sets forth the percentage inhibition of edema by representative compounds of the invention in this test. Table III sets forth the percentage inhibition of myeloperoxidase by representative compounds of the invention in this test.
# [6] = 30 minutes prior to TPA, ear punch weight at 6 hours
# [7] = MPO activity in ear punches 6 hours after TPA
structure (smiles),measurement,setting,value
"CCCCCCCCCCOc1cc(OCCCCCCCCCC)cc(C(=O)N(CC(=O)O)CC(=O)O)c1 [Example 11, N-(Carboxymethyl)-N-[3,5-bis(decyloxy)benzoyl]glycine]",% Inhib of Carrageenan Paw Edema 2 hr,[1]; 50 mg/kg,50%
same,inhibition at 6 µM,[2]; 6 μM test compound,50%
same,% Inhib of Croton Oil Mouse Ear Edema (1 mg),[3],70%
"CCCCCCCCCCCCCCCCCCOc1cc(OCCOCCOCCOCC)cc(C(=O)N(CC(=O)O)CC(=O)O)c1 [Example 48, N-(carboxymethyl)-N-[3-[2-[2-(2-ethoxyethoxy)ethoxy]ethoxy]-(5-octadecyloxy)benzoyl]glycine]",% Inhib of Carrageenan Paw Edema 2 hr 30 mg/kg ip,[1],76%
same,inhibition at 5 µM,[2],36%
same,% Inhib of Croton Oil Mouse Ear Edema (1 mg),[3],19%
"CCCCCCCCCCCCCC(=O)Nc1cc(NC(=O)CCCCCCCCCCCCC)cc(C(=O)N(CC(=O)O)CC(=O)O)c1 [Example 56, N-(Carboxymethyl)-N-[3,5-bis(1-oxotetradecylamino)benzoyl]glycine]",% Inhib of Carrageenan Paw Edema 2 hr,[1]; 100 mg/kg po,26%
"CCCCCCCCCCCCCCCCCCOc1ccc(O)c(C(=O)N(CC(=O)O)CC(=O)O)c1 [Example 62, N-(carboxymethyl)-N-[2-hydroxy-5-(octadecyloxy)benzoyl]glycine]",% Inhib of Carrageenan Paw Edema 2 hr 30 mg/kg ip,[1],57%
same,inhibition at 5.8 µM,[2]; 5.8 μM test compound,50%
same,"Change in Paw Volume in ml, Treated",[4],-0.11 ± 0.06 mL
same,% Inhib of Croton Oil Mouse Ear Edema (1 mg),[3],65%
"CCCCCCCCCCOc1cc(OCCCCCCCCCC)cc(C(=O)C(=O)N(CC(=O)O)CC(=O)O)c1 [Example 73, N-(Carboxymethyl)-N-[[3,5-bis(decyloxy)phenyl]-1,2-dioxoethyl]glycine]",% Inhib of Carrageenan Paw Edema 2 hr 30 mg/kg ip,[1],56%
same,inhibition at 5 µM,[2],62%
"CCCCCCCCCCCCCCCCCCOc1ccc(OCc2ccccc2)c(C(=O)N(CC(=O)O)CC(=O)O)c1 [Example 81, N-(Carboxymethyl)-N-[5-(octadecyloxy)-2-(phenylmethoxy)benzoyl]glycine]",% Inhib of TPA Mouse Ear Edema,"[5]; 0.3 mg topical, 30 minutes prior to TPA, ear punch weight at 6 hours",60%
same,% Inhib of Myeloperoxidase Mouse Ear Edema,"[5]; 0.3 mg topical, MPO activity in ear punches 6 hours after TPA",75%
same,inhibition at 5 µM,[2],42%
same,% Inhib of Croton Oil Mouse Ear Edema (1 mg),[3],74%
"CCCCCCCCCCCCCCOc1ccc(OCc2ccccc2)c(C(=O)N(CC(=O)O)CC(=O)O)c1 [Example 86, N-(Carboxymethyl)-N-[5-(tetradecyloxy)-2-(phenylmethoxy)benzoyl]glycine]",% Inhib of TPA Mouse Ear Edema (1 mg),[5]; [6],47%
same,% Inhib of Myeloperoxidase Mouse Ear Edema (1 mg),[5]; [7],63%
same,inhibition at 10 µM,[2],70%
"CCCCCCCCCCOc1ccc(OCc2ccccc2)c(C(=O)N(CC(=O)O)CC(=O)O)c1 [Example 91, N-(Carboxymethyl)-N-[5-(decyloxy)-2-(phenylmethoxy)benzoyl]glycine]",% Inhib of TPA Mouse Ear Edema (1 mg),[5]; [6],59%
same,% Inhib of Myeloperoxidase Mouse Ear Edema (1 mg),[5]; [7],78%
same,inhibition at 10 µM,[2],70%
"CCCCCCCCCCCCCCCCCCOc1ccc(OCCCc2ccccc2)c(C(=O)N(CC(=O)O)CC(=O)O)c1 [Example 95, N-(Carboxymethyl)-N-[5-(octadecyloxy)-2-(3-phenylpropoxy)benzoyl]glycine]",% Inhib of TPA Mouse Ear Edema (1 mg),[5]; [6],55%
same,inhibition at 10 µM,[2],71%
"CCCCCCCCCCCCCCCCCCOc1ccc(OCCCOc2ccc(OCc3ccccc3)cc2)c(C(=O)N(CC(=O)O)CC(=O)O)c1 [Example 99, N-(Carboxymethyl)-N-[5-(octadecyloxy)-2-[3-[4-(phenylmethoxy)phenoxy]propoxy]benzoyl]glycine]",% Inhib of TPA Mouse Ear Edema (1 mg),[5]; [6],50%
same,inhibition at 10 µM,[2],86%
CCCCCCCCCCCCCCCCCCOc1ccc(OCCCOc2ccc(O)cc2)c(C(=O)N(CC(=O)O)CC(=O)O)c1 [Example 100],% Inhib of TPA Mouse Ear Edema (1 mg),[5]; [6],65%
same,inhibition at 10 µM,[2],77%
"O=C(O)CN(CC(=O)O)C(=O)c1cc(OCCCCCCOc2ccc(-c3ccccc3)cc2)ccc1OCc1ccccc1 [Example 105, N-[5-[[6-([1,1'-biphenyl]-4-yloxy)hexyl]oxy]-2-(phenylmethoxy)benzoyl]-N-(carboxymethyl)glycine]",% Inhib of TPA Mouse Ear Edema (1 mg),[5]; [6],67%
same,inhibition at 10 µM,[2],38%
"O=C(O)CN(CC(=O)O)C(=O)c1cc(OCCCCCCCCCCCCOc2ccccc2)ccc1OCc1ccccc1 [Example 110, N-(Carboxymethyl)-N-[5-[(12-phenoxydodecyl)oxy]-2-(phenylmethoxy)benzoyl]glycine]",% Inhib of TPA Mouse Ear Edema (1 mg),[5]; [6],57%
same,inhibition at 10 µM,[2],61%
"O=C(O)CN(CC(=O)O)C(=O)C(=O)c1ccc(OCCCCCCCCCCCCOc2ccccc2)cc1 [Example 114, N-(Carboxymethyl)-N-[1,2-dioxo-2-[4-[(12-phenoxydodecyl)oxy]phenyl]ethyl]glycine]",% Inhib of TPA Mouse Ear Edema (1 mg),[5]; [6],37%
same,inhibition at 10 µM,[2],35%
